This note sets out measurements from patent US6875761B2 (Eisai Co., Ltd., priority 1997, dated 2005).

One test addresses T1, serotonin 1A receptor (Rattus norvegicus, UniProt P19327).
T1 construct: To the receptor fraction of the hippocampus were added a test compound and 0.5 nM of [^3H]; 8-hydroxy-dipropylaminotetralin; from tissue; host or cells: rat hippocampus membrane fraction
T1 sequence (P19327 1-422): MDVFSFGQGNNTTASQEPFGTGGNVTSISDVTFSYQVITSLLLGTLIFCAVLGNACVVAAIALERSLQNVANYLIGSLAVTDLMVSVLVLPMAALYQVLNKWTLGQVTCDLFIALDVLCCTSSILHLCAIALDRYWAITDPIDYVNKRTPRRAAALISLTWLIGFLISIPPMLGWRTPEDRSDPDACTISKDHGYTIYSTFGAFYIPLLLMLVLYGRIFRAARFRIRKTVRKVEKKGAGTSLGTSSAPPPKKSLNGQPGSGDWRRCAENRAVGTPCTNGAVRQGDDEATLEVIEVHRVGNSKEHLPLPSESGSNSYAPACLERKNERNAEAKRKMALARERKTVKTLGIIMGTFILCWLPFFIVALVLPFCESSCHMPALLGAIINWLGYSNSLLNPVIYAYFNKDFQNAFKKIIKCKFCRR
The test is described as follows: Binding test on [3H] 8-hydroxy-dipropylaminotetralin, hippocampus receptor fraction. Also noted: species or system SD rats.

The next test has as its target T2, serotonin 2 receptor (Rattus norvegicus, UniProt P14842).
T2 construct: To the receptor fraction of the cerebral cortex were added a test compound and 0.3 nM of [^3H] ketanserin; from tissue; host or cells: rat cerebral cortex membrane fraction
Put plainly: Binding test on [3H] ketanserin, cerebral cortex receptor fraction. Particulars: 0.3 nM [3H] ketanserin, 37° C. 15 min, read-out: 5HT2. Also noted: species or system SD rats.

Setting [1] is: rat hippocampus receptor fraction, 0.5 nM [3H] 8-OH-DPAT, room temperature 30 min, read-out: 5HT1.

Structures can show the parent of a compound that is named as a salt. Where two headings read alike, the source gives them in different places.

T2 sequence (P14842 whole entry): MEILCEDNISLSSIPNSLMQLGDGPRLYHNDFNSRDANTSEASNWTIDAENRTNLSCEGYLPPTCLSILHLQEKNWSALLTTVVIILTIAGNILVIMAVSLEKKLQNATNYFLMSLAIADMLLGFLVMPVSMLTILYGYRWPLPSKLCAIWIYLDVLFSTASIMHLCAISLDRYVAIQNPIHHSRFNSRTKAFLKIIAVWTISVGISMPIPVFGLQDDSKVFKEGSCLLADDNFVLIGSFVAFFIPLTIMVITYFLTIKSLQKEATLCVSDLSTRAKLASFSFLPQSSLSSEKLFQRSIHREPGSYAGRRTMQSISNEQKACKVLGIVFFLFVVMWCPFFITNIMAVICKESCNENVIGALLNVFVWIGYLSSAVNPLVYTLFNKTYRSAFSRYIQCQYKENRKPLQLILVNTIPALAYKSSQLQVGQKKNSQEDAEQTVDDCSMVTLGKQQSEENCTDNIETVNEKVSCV

For `CCCS(=O)(=O)c1ccc(-c2cc3ccccc3c(N3CCN(CC)CC3)n2)cc1` [Example 349, 1-(4-ethylpiperazin-1-yl)-3-[4-propylsulfonyl)phenyl]isoquinoline dihydrochloride], the results for the Ki on serotonin 1A receptor (setting [1]) and on serotonin 2 receptor were 3.2 nM and 5 nM, respectively.

Turning to `CCN1CCN(c2nc(-c3ccc(N4CC[S+]([O-])CC4)nc3)cc3ccccc23)CC1` [Example 151, 1-(4-ethylpiperazin-1-yl)-3-[2-(S-oxythiomorpholin-4-yl)pyridin-5-yl]isoquinoline trihydrochloride], the Ki on serotonin 1A receptor (setting [1]) stood at 7 nM; on serotonin 2 receptor, 79.2 nM.

Turning to `CCN1CCN(c2nc(-c3ccnc(OC)c3)cc3ccccc23)CC1` [Example 405, 1-(4-ethylpiperazin-1-yl)-3-(2-methoxypyridin-4-yl)isoquinoline], the Ki was 22.6 nM at serotonin 1A receptor (setting [1]) and 10.2 nM at serotonin 2 receptor.

Take `CCN1CCN(c2nc(-c3ccc(S(=O)(=O)N4CCS(=O)(=O)CC4)cc3)cc3ccccc23)CC1` [Example 77, 3-[(1,1-Dioxythiomorpholinyl)Sulfonylphenyl]-1-(4-Ethylpiperazin-1-Yl)Isoquinoline Hydrochloride]: the figures for the Ki on serotonin 1A receptor (setting [1]) and on serotonin 2 receptor were 13.6 nM and 90.5 nM, respectively.

Consider `CCN1CCN(c2nc(-c3ccc(OC)nc3)cc3ccccc23)CC1` [Example 344, 1-(4-ethylpiperazin-1-yl)-3-(2-methoxypyridin-5-yl)isoquinoline], for which the Ki came out at 10.7 nM at serotonin 1A receptor (setting [1]) and 35.9 nM on serotonin 2 receptor.

As for `CCN1CCN(c2nc(-c3ccc(CCC(C)(C)O)nc3)cc3ccccc23)CC1` [Example 138, 1-(1-Ethylpiperazin-4-yl)-3-[2-(3-Hydroxy-3-Methylbutyl)Pyridin-5-yl]Isoquinoline Oxalate], the Ki was 13.5 nM at serotonin 1A receptor (setting [1]) and 5.5 nM on serotonin 2 receptor.

On to `CCN1CCN(c2nc(-c3ccc(O[C@@H](C)CO)cc3)cc3ccoc23)CC1` [Example 303, 7-(1-ethylpiperazin-4-yl)-5-{4-[(S)-2-hydroxy-1-methylethoxy]phenyl}furo[2,3-c]pyridine dihydrochloride], for which the Ki at serotonin 1A receptor (setting [1]) worked out at 0.53 nM; on serotonin 2 receptor it was 44.4 nM.

Turning to `CCN1CCN(c2nc(-c3cnc(CCCOC)s3)cc3ccccc23)CC1` [Example 172, 1-(1-ethylpiperazin-4-yl)-3-[2-(3-methoxypropyl)thiazol-5-yl]isoquinoline oxalate], the Ki is 4.7 nM on serotonin 1A receptor (setting [1]) and 36.2 nM on serotonin 2 receptor.

For the compound `CCN1CCN(c2nc(-c3ccc(N)cc3)cc3ccccc23)CC1` [Example 65, 3-(4-Aminophenyl)-1-(4-Ethylpiperazin-1-Yl)Isoquinoline Hydrochloride], the Ki stood at 60.1 nM on serotonin 1A receptor (setting [1]) and 33.5 nM at serotonin 2 receptor.

In the case of `CCN1CCN(c2nc(-c3ccc(C(C)CCO)cc3)cc3ccccc23)CC1` (stereo not shown) [Example 383, 1-(4-Ethylpiperazin-1-yl)-3-[4-(3-Hydroxy-1-Methylpropyl)Phenyl]Isoquinoline Oxalate], the Ki was determined as 7.4 nM at serotonin 1A receptor (setting [1]) and 3.4 nM on serotonin 2 receptor.

Turning to `CCN1CCN(c2nc(-c3ccc(CCNS(=O)(=O)CC)cc3)cc3ccccc23)CC1` [Example 79, 3-(4-Ethylsulfonylaminoethylphenyl)-1-(4-Ethylpiperazin-1-Yl)Isoquinoline Hydrochloride], the results for the Ki at serotonin 1A receptor (setting [1]) and at serotonin 2 receptor were 5.8 nM and 23 nM, respectively.

Consider `CCN1CCN(c2nc(-c3cnc(CCCO)s3)cc3ccccc23)CC1` [Example 171, 1-(1-ethylpiperazin-4-yl)-3-[2-(3-hydroxypropyl)thiazol-5-yl]isoquinoline oxalate], for which the results for the Ki at serotonin 1A receptor (setting [1]) and at serotonin 2 receptor were 4.7 nM and 21.9 nM, respectively.

Turning to `CCCS(=O)(=O)NCc1ccc(-c2cc3ccccc3c(N3CCN(CC)CC3)n2)cc1Cl` [Example 92, 3-(3-Chloro-4-propylsulfonylaminomethylphenyl)-1-(4-ethylpiperazin-1-yl)isoquinoline Hydrochloride], the Ki on serotonin 1A receptor (setting [1]) came to 0.9 nM; on serotonin 2 receptor, 0.7 nM.

Take `CCN1CCN(c2nc(-c3ccc(CCCF)cn3)cc3ccccc23)CC1` [Example 132, 1-(1-Ethylpiperazin-4-yl)-3-[5-(3-Fluoropropyl)Pyridin-2-yl)Isoquinoline]: the Ki on serotonin 1A receptor (setting [1]) stood at 1.5 nM; on serotonin 2 receptor, 23.4 nM.

With `CCN1CCN(c2nc(-c3ccc(C(C)(C)O)cc3)cc3ccccc23)CC1` [Example 345, 1-(4-ethylpiperazin-1-yl)-[4-(1-hydroxy-1-methylethyl)phenyl]isoquinoline], the Ki was found to be 11.3 nM at serotonin 1A receptor (setting [1]) and 1.4 nM at serotonin 2 receptor.

Consider `CCN1CCN(c2nc(NC(=O)c3ccccc3)cc3ccccc23)CC1` [Example 421, 3-benzamide-1-(4-ethylpiperazin-1-yl)isoquinoline], for which the figures for the Ki at serotonin 1A receptor (setting [1]) and at serotonin 2 receptor were 9.47 nM and 129 nM, respectively.

Turning to `CCN1CCN(c2nc(-c3ccc(S(=O)(=O)CCCO)cc3)cc3ccccc23)CC1` [Example 352, 1-(4-ethylpiperazin-1-yl)-3-[4-(3-hydroxypropyl)sulfonylphenyl]isoquinoline dihydrochloride], the Ki worked out at 4 nM at serotonin 1A receptor (setting [1]) and 54.6 nM on serotonin 2 receptor.

As for `CCN1CCN(c2nc(CC(O)c3ccccc3)cc3ccccc23)CC1` (stereo not shown) [Example 420, 1-(4-ethylpiperazin-1-yl)-3-(2-hydroxy-2-phenylethyl)isoquinoline], the Ki on serotonin 1A receptor (setting [1]) turned out to be 117 nM; on serotonin 2 receptor, 22.4 nM.

`CCN1CCN(c2nc(-c3ccc(C(C)(C)CCO)cc3)cc3ccccc23)CC1` [Example 390, Oxalate]: the Ki on serotonin 1A receptor (setting [1]) was determined as 7.5 nM; on serotonin 2 receptor it was 11.1 nM.

Take `CCN1CCN(c2nc(-c3ccc4c(c3)CCC4=O)cc3ccccc23)CC1` [Example 414, 1-(4-ethylpiperazin-1-yl)-3-(1-indanon-5-yl)isoquinoline]: the Ki at serotonin 1A receptor (setting [1]) amounted to 17.3 nM; on serotonin 2 receptor, 4.2 nM.

Regarding `CCN1CCN(c2nc(/C=C(\C)c3cccc(N4CCOCC4)c3)cc3ccccc23)CC1` [Example 207, 3-{(E)-2-Methyl-2-[3-(4-Morpholinyl)Phenyl]Ethenyl}-1-(4-Ethylpiperazin-1-Yl)Isoquinoline Oxalate], the results for the Ki at serotonin 1A receptor (setting [1]) and at serotonin 2 receptor were 22.2 nM and 17.9 nM, respectively.

As to `CCN1CCN(c2nc(-c3ccc(S(=O)(=O)NC)cc3)cc3ccccc23)CC1` [Example 361, 1-(4-ethylpiperazin-1-yl)-3-[4-(N-methylsulfamoyl)phenyl]isoquinoline dihydrochloride], the figures for the Ki at serotonin 1A receptor (setting [1]) and at serotonin 2 receptor were 3.5 nM and 2.6 nM, respectively.

For `CCN1CCN(c2nc(-c3ccc(N4CCOCC4)nc3)cc3ccsc23)CC1` [Example 263, 5-[2-(4-morpholinyl)pyridin-5-yl]-7-(4-ethylpiperazin-1-yl)thieno[2,3-c]pyridine Hydrochloride], the Ki at serotonin 1A receptor (setting [1]) turned out to be 6.42 nM; on serotonin 2 receptor, 0.89 nM.

Regarding `CCN1CCN(c2nc(-c3ccc(OCC(C)=O)cc3)cc3ccccc23)CC1` [Example 47, 1-(1-Ethylpiperazin-4-Yl)-3-(4-Acetonyloxyphenyl)Isoquinoline], the results for the Ki on serotonin 1A receptor (setting [1]) and on serotonin 2 receptor were 25.3 nM and 2.6 nM, respectively.

In the case of `CCN1CCN(c2nc(-c3ccc4c(c3)OCO4)cc3ccccc23)CC1` [Example 46, 3-(3,4-Methylenedioxyphenyl)-1-(4-Ethylpiperazin-1-Yl)Isoquinoline Hydrochloride], the figures for the Ki at serotonin 1A receptor (setting [1]) and on serotonin 2 receptor were 58 nM and 12.7 nM, respectively.

In the case of `CCNC(=O)Oc1ccc(-c2cc3ccccc3c(N3CCN(CC)CC3)n2)cc1` [Example 59], the Ki on serotonin 1A receptor stood at 16.3 nM; at serotonin 2 receptor, 14.3 nM.

As to `CCN1CCN(c2nc(-c3ccc(OCCCC(C)(C)O)cc3)cc3sccc23)CC1` [Example 292, 6-[4-(4-methyl-4-hydroxypentyloxy)phenyl]-4-(4-ethylpiperazin-1-yl)thieno[3,2-c]pyridine], the Ki amounted to 68.6 nM on serotonin 1A receptor (setting [1]) and 22.4 nM on serotonin 2 receptor.

On to `CCN1CCN(c2nc(-c3ccc(C(O)CO)cc3)cc3ccccc23)CC1` (stereo not shown) [Example 387, 1-(4-Ethylpiperazin-1-yl)-3-[4-(1,2-Dihydroxyethyl)Phenyl]Isoquinoline Dihydrochloride], for which the figures for the Ki at serotonin 1A receptor (setting [1]) and on serotonin 2 receptor were 25.1 nM and 24.7 nM, respectively.

As to `CCN1CCN(c2nc(-c3ccc(OC(C)COC)nc3)cc3ccsc23)CC1` (stereo not shown) [Example 267, 5-[2-(2-methoxyethoxy-2-methyl)pyridin-5-yl]-7-(4-ethylpiperazin-1-yl)thieno[2,3-c]pyridine Hydrochloride], the Ki is 10.4 nM on serotonin 1A receptor (setting [1]) and 68.7 nM at serotonin 2 receptor.

On to `CCN1CCN(c2nc(-c3ccc(CN4CCSCC4)cc3)cc3ccccc23)CC1` [Example 94, 3-(4-Thiomorpholinylmethylphenyl)-1-(4-ethylpiperazin-1-yl)isoquinoline Hydrochloride], for which the Ki at serotonin 1A receptor (setting [1]) was determined as 6.4 nM; at serotonin 2 receptor, 41.2 nM.

For `CCN1CCN(c2nc(-c3ccc(CCCOC)cn3)cc3ccccc23)CC1` [Example 141, 1-(1-Ethylpiperazin-4-yl)-3-[5-(3-Methoxypropyl)Pyridin-2-yl]Isoquinoline Oxalate], the figures for the Ki on serotonin 1A receptor (setting [1]) and on serotonin 2 receptor were 2.9 nM and 20.4 nM, respectively.

With `CCN1CCN(c2nc(-c3ccc(C(F)CCO)cc3)cc3ccccc23)CC1` (stereo not shown) [Example 27, 1-(1-Ethylpiperazin-4-yl)-3-[4-(3-hydroxy-1-fluoropropyl)phenyl]isoquinoline], the figures for the Ki on serotonin 1A receptor (setting [1]) and at serotonin 2 receptor were 29.4 nM and 2.47 nM, respectively.
